Source: patent publication US12391692B2, “Spiro ring-containing quinazoline compound” (WIGEN BIOMEDICINE TECHNOLOGY (SHANGHAI) CO., LTD., priority 2020, dated 2025)
pIC50: −log10 of the molar value.

Tests used:
[1] = test system: pERK level in H358 cells; assay: pERK and ERK protein content assay in H358 cells (ELISA); assay type: cell-based; conditions: Homo sapiens, NCI-H358, pERK/ERK ratio vs DMSO group, compound 1 μM, 24 h, read-out: Inhibition rate (%)
Procedure: H358 cells were seeded in a 24-well plate. After one day of growth, a test compound (at a concentration of 1 μM) was added. After 24 h of action of the compound, the cells were lysed, and the cell lysate was transferred to a 96-well ELISA plate. The levels of pERK and ERK in the lysate were measured using an ELISA kit (abcam 176660). The ratio of pERK to ERK was calculated and compared with that of the DMSO group, and the percentage of inhibition of pERK activity by the compound was calculated.

[2] = test system: H358 cells; assay: Antiproliferative activity against H358 cells (Cell Titer Glow, ultra-low attachment plate); assay type: cell-based; conditions: Homo sapiens, NCI-H358, 72 h, three days after addition of compound
Procedure: 2500 H358 cells were seeded in a 96-well ultra-low attachment plate (corning, 7007). After one day of growth, a serially diluted compound (a maximum concentration of 5 μM, 5-fold dilution, a total of five doses) was added. Three days after the addition of the compound, Cell Titer Glow (Promega, G9681) was added to evaluate pellet growth, and the IC50 value was calculated.

pIC50 [2]	Compound	inhibition at 1 µM [1] [%]
> 6.52	C=CC(=O)N1CC2(C1)CN(c1nc(N3CC(N4CC5(CC5)C4)C3)nc3c(OCC(F)(F)F)c(-c4c(C)ccc5[nH]ncc45)c(C4CC4)cc13)C2 [Compound 101]	> 90
> 6.52	C=CC(=O)N1CCC2(CC1)CN(c1nc(N3CC(N4CC5(CC5)C4)C3)nc3c(OCC(F)(F)F)c(-c4c(C)ccc5[nH]ncc45)c(C4CC4)cc13)C2 [Compound 102]	> 90
> 6.52	C=CC(=O)N1CC2(CCN(c3nc(N4CC(N5CC6(CC6)C5)C4)nc4c(OCC(F)(F)F)c(-c5c(C)c(F)cc6[nH]ncc56)c(C5CC5)cc34)CC2)C1 [Compound 104]	> 90
> 6.52	C=CC(=O)N1CC2(CCN(c3nc(N4CC(N5CC6(CC6)C5)C4)nc4c(OCC(F)(F)F)c(-c5c(C)c(C)cc6[nH]ncc56)c(C5CC5)cc34)CC2)C1 [Compound 105]	> 90
> 6.52	C=CC(=O)N1CC2(CCN(c3nc(N4CC(N5CC6(CC6)C5)C4)nc4c(OCC(F)(F)F)c(-c5c(C)ccc6[nH]nc(C)c56)c(C5CC5)cc34)CC2)C1 [Compound 106]	> 90
> 6.52	C=CC(=O)N1CC2(CCN(c3nc(N4CC(N5CC6(CC6)C5)C4)nc4c(OCC(F)(F)F)c(-c5c(C)ccc6[nH]cnc56)c(C5CC5)cc34)CC2)C1 [Compound 107]	> 90
> 6.52	C=CC(=O)N1CC2(CCN(c3nc(N4CC(N5CC6(CC6)C5)C4)nc4c(OCC(F)(F)F)c(-c5c(F)ccc6[nH]cnc56)c(C5CC5)cc34)CC2)C1 [Compound 108]	> 90
> 6.52	C=CC(=O)N1CC2(CCN(c3nc(N4CC(N5CC6(CC6)C5)C4)nc4c(OCC(F)(F)F)c(-c5c(C)ccc6cn[nH]c56)c(C5CC5)cc34)CC2)C1 [Compound 109]	> 90
> 6.52	C=CC(=O)N1CC2(CCN(c3nc(N4CC(N5CC6(CC6)C5)C4)nc4c(OCC(F)(F)F)c(-c5c(F)ccc6cn[nH]c56)c(C5CC5)cc34)CC2)C1 [Compound 110]	> 90
6.00 to 6.52	C=CC(=O)N1CC2(CCN(c3nc(N4CC(N5CC6(CC6)C5)C4)nc4c(OCC(F)(F)F)c(-c5cc(O)cc6ccccc56)c(C5CC5)cc34)CC2)C1 [Compound 111]	> 90
> 6.52	C=CC(=O)N1CC2(CCN(c3nc(N4CC(N5CC6(CC6)C5)C4)nc4c(OCC(F)(F)F)c(-c5c(O)cccc5F)c(C5CC5)cc34)CC2)C1 [Compound 112]	> 90
6.00 to 6.52	C=CC(=O)N1CC2(CCN(c3nc(N4CC(N5CC6(CC6)C5)C4)nc4c(OCC(F)(F)F)c(-c5c(F)cccc5F)c(C5CC5)cc34)CC2)C1 [Compound 113]	50 to 90
> 6.52	C=CC(=O)N1CC2(CCN(c3nc(N4CC(N5CCC6(CC6)C5)C4)nc4c(OCC(F)(F)F)c(-c5c(C)ccc6[nH]ncc56)c(CC)cc34)CC2)C1 [Compound 114]	> 90
> 6.52	C=CC(=O)N1CCC2(CC1)CN(c1nc(N3CC(N4CCC5(CC5)C4)C3)nc3c(OCC(F)(F)F)c(-c4c(C)ccc5[nH]ncc45)c(C4CC4)cc13)C2 [Compound 115]	> 90
> 6.52	C=CC(=O)N1CC2(CCN(c3nc(N4CC5(CCCN5CC)C4)nc4c(OCC(F)(F)F)c(-c5c(C)ccc6[nH]ncc56)c(C5CC5)cc34)CC2)C1 [Compound 116]	> 90
> 6.52	C=CC(=O)N1CC2(CCN(c3nc(N4CC5(CCCN5C(C)C)C4)nc4c(OCC(F)(F)F)c(-c5c(C)ccc6[nH]ncc56)c(C5CC5)cc34)CC2)C1 [Compound 117]	> 90
> 6.52	C=CC(=O)N1CC2(CCN(c3nc(N4CC5(CCCN5CCF)C4)nc4c(OCC(F)(F)F)c(-c5c(C)ccc6[nH]ncc56)c(C5CC5)cc34)CC2)C1 [Compound 118]	> 90
> 6.52	C=CCN1CCCC12CN(c1nc(N3CCC4(CC3)CN(C(=O)C=C)C4)c3cc(C4CC4)c(-c4c(C)ccc5[nH]ncc45)c(OCC(F)(F)F)c3n1)C2 [Compound 119]	> 90
> 6.52	C=CC(=O)N1CC2(CCN(c3nc(N4CC5(CCCN5C5CC5)C4)nc4c(OCC(F)(F)F)c(-c5c(C)ccc6[nH]ncc56)c(C5CC5)cc34)CC2)C1 [Compound 120]	> 90

The next lines start with the compound.

Compound	pIC50 [2]	inhibition at 1 µM [1] [%]
C=CC(=O)N1CC2(CCN(c3nc(N4CCC5(CCCN5C)CC4)nc4c(OCC(F)(F)F)c(-c5c(C)ccc6[nH]ncc56)c(C5CC5)cc34)CC2)C1 [Compound 79]	> 6.52	> 90
C=CC(=O)N1CC2(CCN(c3nc(N4CCC5(CCCN5CCOC)CC4)nc4c(OCC(F)(F)F)c(-c5c(C)ccc6[nH]ncc56)c(C5CC5)cc34)CC2)C1 [Compound 80]	6.00 to 6.52	50 to 90
C=CC(=O)N1CC2(CCN(c3nc(N4CC5(CN(C)CCO5)C4)nc4c(OCC(F)(F)F)c(-c5c(C)ccc6[nH]ncc56)c(C5CC5)cc34)CC2)C1 [Compound 81]	> 6.52	> 90
C=CC(=O)N1CC2(CCN(c3nc(N4CC5(CN(CCOC)CCO5)C4)nc4c(OCC(F)(F)F)c(-c5c(C)ccc6[nH]ncc56)c(C5CC5)cc34)CC2)C1 [Compound 82]	> 6.52	> 90
C=CC(=O)N1CC2(CCN(c3nc(N4CCOC5(CN(C)C5)C4)nc4c(OCC(F)(F)F)c(-c5c(C)ccc6[nH]ncc56)c(C5CC5)cc34)CC2)C1 [Compound 83]	6.00 to 6.52	50 to 90
C=CC(=O)N1CC2(CCN(c3nc(N4CCOC5(CN(CCOC)C5)C4)nc4c(OCC(F)(F)F)c(-c5c(C)ccc6[nH]ncc56)c(C5CC5)cc34)CC2)C1 [Compound 84]	6.00 to 6.52	50 to 90
C=CC(=O)N1CC2(CCN(c3nc(O[C@H]4C[C@@H](N(C)C)C4)nc4c(OCC(F)(F)F)c(-c5c(C)ccc6[nH]ncc56)c(C5CC5)cc34)CC2)C1 [Compound 85]	> 6.52	> 90
C=CC(=O)N1CC2(CCN(c3nc(O[C@H]4C[C@H](N(C)C)C4)nc4c(OCC(F)(F)F)c(-c5c(C)ccc6[nH]ncc56)c(C5CC5)cc34)CC2)C1 [Compound 86]	6.00 to 6.52	50 to 90
C=CC(=O)N1CC2(CCN(c3nc(O[C@H]4C[C@@H](N5CCC5)C4)nc4c(OCC(F)(F)F)c(-c5c(C)ccc6[nH]ncc56)c(C5CC5)cc34)CC2)C1 [Compound 87]	> 6.52	> 90
C=CC(=O)N1CC2(CCN(c3nc(O[C@H]4C[C@H](N5CCC5)C4)nc4c(OCC(F)(F)F)c(-c5c(C)ccc6[nH]ncc56)c(C5CC5)cc34)CC2)C1 [Compound 88]	6.00 to 6.52	50 to 90
C=CC(=O)N1CC2(CCN(c3nc(O[C@H]4C[C@@H](N5CCCC5)C4)nc4c(OCC(F)(F)F)c(-c5c(C)ccc6[nH]ncc56)c(C5CC5)cc34)CC2)C1 [Compound 89]	> 6.52	> 90
C=CC(=O)N1CC2(CCN(c3nc(O[C@H]4C[C@H](N5CCCC5)C4)nc4c(OCC(F)(F)F)c(-c5c(C)ccc6[nH]ncc56)c(C5CC5)cc34)CC2)C1 [Compound 90]	6.00 to 6.52	50 to 90
C=CC(=O)N1CC2(CCN(c3nc(O[C@H]4C[C@@H](N5CCC(F)(F)C5)C4)nc4c(OCC(F)(F)F)c(-c5c(C)ccc6[nH]ncc56)c(C5CC5)cc34)CC2)C1 [Compound 91]	> 6.52	> 90
C=CC(=O)N1CC2(CCN(c3nc(O[C@H]4C[C@H](N5CCC(F)(F)C5)C4)nc4c(OCC(F)(F)F)c(-c5c(C)ccc6[nH]ncc56)c(C5CC5)cc34)CC2)C1 [Compound 92]	< 6.00	50 to 90
C=CC(=O)N1CC2(CCN(c3nc(O[C@H]4C[C@@H](N5CC6(CC6)C5)C4)nc4c(OCC(F)(F)F)c(-c5c(C)ccc6[nH]ncc56)c(C5CC5)cc34)CC2)C1 [Compound 93]	> 6.52	> 90
C=CC(=O)N1CC2(CCN(c3nc(O[C@H]4C[C@H](N5CC6(CC6)C5)C4)nc4c(OCC(F)(F)F)c(-c5c(C)ccc6[nH]ncc56)c(C5CC5)cc34)CC2)C1 [Compound 94]	6.00 to 6.52	50 to 90
C=CC(=O)N1CC2(CCN(c3nc(O[C@H]4C[C@@H](N5CC6(CCC6)C5)C4)nc4c(OCC(F)(F)F)c(-c5c(C)ccc6[nH]ncc56)c(C5CC5)cc34)CC2)C1 [Compound 95]	> 6.52	> 90
C=CC(=O)N1CC2(CCN(c3nc(O[C@H]4C[C@H](N5CC6(CCC6)C5)C4)nc4c(OCC(F)(F)F)c(-c5c(C)ccc6[nH]ncc56)c(C5CC5)cc34)CC2)C1 [Compound 96]	6.00 to 6.52	> 90
C=CC(=O)N1CC2(CCN(c3nc(N4CC(N5CC6(CC6)C5)C4)nc4c(OCC)c(-c5c(C)ccc6[nH]ncc56)c(C5CC5)cc34)CC2)C1 [Compound 97]	> 6.52	> 90
C=CC(=O)N1CC2(CCN(c3nc(N4CC(N5CC6(CC6)C5)C4)nc4c(OCC(F)F)c(-c5c(C)ccc6[nH]ncc56)c(C5CC5)cc34)CC2)C1 [Compound 98]	> 6.52	> 90
C=CC(=O)N1CC2(CCN(c3nc(N4CC(N5CC6(CC6)C5)C4)nc4c(O[C@@H](C)C(F)(F)F)c(-c5c(C)ccc6[nH]ncc56)c(C5CC5)cc34)CC2)C1 [Compound 99]	> 6.52	> 90
C=CC(=O)N1CC2(CCN(c3nc(N4CC(N5CC6(CC6)C5)C4)nc4c(OCC(F)(F)F)c(-c5c(C)ccc6[nH]ncc56)c(C=C)cc34)CC2)C1 [Compound 100]	> 6.52	> 90
